The structures appear in SMILES notation. Like-named read-outs stand apart in the source and are kept apart here.

In one assay the test system is Tyk2-pSTAT4. Nature of the assay: IL-12 induced pSTAT4 in human PBMC. It is filed as cell-based. The following applies: read-out: Tyk2-pSTAT4 EC50. In a few lines: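 PBMC (200,000 cells/well) in serum-containing medium were preincubated with compound for 1 hr at 37 C, final DMSO 0.1%. Stimulation with 1.7 ng/mL IL-12 (final) for 30 minutes. pSTAT4 and total STAT4 were measured in lysates by MSD.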

Another assay deals with TYK2 (Homo sapiens (Human), UniProt P29597). Nature of the assay: Tyk2 activity inhibition assay (radioactive kinase assay / Caliper assay). It is filed as biochemical. In a few lines: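 Radiometric format: TYK2 with peptide substrate (20 μM) and 33P-ATP at 10 μM in HEPES pH 7.5, 1% DMSO, 120 min at room temp, P81 paper capture. Caliper mobility-shift format: TYK2 9.75 nM, peptide 30 at 3 uM, ATP 16 uM (also 1 mM), 25 min at 28° C.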
Sequence of TYK2 (P29597 whole entry): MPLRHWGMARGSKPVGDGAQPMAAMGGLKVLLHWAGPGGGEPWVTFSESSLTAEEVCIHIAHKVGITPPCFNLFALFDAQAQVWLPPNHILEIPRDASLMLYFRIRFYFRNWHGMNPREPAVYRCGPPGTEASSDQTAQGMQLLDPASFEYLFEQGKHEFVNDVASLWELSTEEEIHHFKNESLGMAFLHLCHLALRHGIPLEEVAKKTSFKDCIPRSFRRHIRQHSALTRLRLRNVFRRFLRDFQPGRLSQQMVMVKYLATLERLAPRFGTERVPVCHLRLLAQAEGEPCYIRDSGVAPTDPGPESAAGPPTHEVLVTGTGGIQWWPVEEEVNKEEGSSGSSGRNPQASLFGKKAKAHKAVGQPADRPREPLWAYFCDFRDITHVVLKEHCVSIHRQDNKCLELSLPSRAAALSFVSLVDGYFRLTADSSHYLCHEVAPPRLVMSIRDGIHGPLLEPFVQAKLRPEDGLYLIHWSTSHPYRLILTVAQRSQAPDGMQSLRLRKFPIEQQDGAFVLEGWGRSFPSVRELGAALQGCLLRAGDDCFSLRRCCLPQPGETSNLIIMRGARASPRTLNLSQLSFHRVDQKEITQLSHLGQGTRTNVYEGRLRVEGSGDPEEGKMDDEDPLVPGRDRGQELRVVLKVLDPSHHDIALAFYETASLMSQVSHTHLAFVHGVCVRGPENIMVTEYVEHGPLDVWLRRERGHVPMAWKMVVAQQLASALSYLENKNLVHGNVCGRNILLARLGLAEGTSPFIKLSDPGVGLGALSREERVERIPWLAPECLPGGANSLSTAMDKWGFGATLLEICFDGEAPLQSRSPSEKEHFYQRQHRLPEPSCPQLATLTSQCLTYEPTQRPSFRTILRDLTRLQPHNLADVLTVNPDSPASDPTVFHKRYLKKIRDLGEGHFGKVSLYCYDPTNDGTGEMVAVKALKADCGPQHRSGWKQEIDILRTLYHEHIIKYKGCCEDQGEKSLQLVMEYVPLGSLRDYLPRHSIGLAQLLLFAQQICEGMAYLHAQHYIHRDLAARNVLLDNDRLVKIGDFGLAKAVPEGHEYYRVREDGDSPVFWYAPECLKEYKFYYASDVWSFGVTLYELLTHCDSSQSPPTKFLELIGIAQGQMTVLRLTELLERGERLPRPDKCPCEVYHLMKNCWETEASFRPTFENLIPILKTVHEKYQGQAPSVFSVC

In the next assay the target is JAK2 (Homo sapiens (Human), UniProt O60674). As to the kind of experiment: JAK2 activity inhibition assay (radioactive kinase assay / Caliper assay). It is filed as biochemical. The following applies: read-out: JAK2 Ki. In a few lines:
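Mobility-shift (Caliper) read-out of phosphorylated peptide substrate. Compound diluted in 25 mM HEPES pH 7.5, 0.01% Brij-35, 0.01% Triton, 0.5 mM EGTA; enzyme added, then peptide plus ATP in 10 mM MgCl2. Incubated 25 min at 28° C, stopped with EDTA buffer.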

Another assay deals with IL-12/IL-18 induced IFNγ. Nature of the assay: Acute mouse model for IL-12/IL-18 induced IFNγ in serum. It is filed as in vivo, C57BL/6 mice. The following applies: in mice, efficacious dose of 30 mg/kg SC. The protocol: C57BL/6 mice mice are dosed PO or SC with test compound at various doses or vehicle (n=9 or 10 per group) and then, 30 minutes later, injected IP with 10 ng IL-12 and 1 μg IL-18. Three hours after IL-12/IL-18 injection, mice were bled and serum isolated. Concentration of cytokines in serum were determined using CBA analysis.

The test system of a further assay is JAK2-pSTAT5. Nature of the assay: GM-CSF induced pSTAT5 in human PBMC. It is filed as cell-based. The following applies: read-out: JAK2-pSTAT5 EC50.
For another assay, the system named is IL-12 induced IFNγ. As to the kind of experiment: Ex vivo mouse IL-12 induced IFNγ studies. It is filed as in vivo, C57/BL6 mice. The following applies: ex vivo mouse model, doses of ≤10 mg/kg. The protocol:
C57/BL6 mice were given a single oral dose of either vehicle or different doses of compound at a volume of 10 mL/kg. 30 minutes to 1 hour after dosing, animals were euthanized and blood was collected via vena cava into sodium heparin blood collection tubes and inverted several times. Blood was then plated on anti-CD3 coated plates and stimulated with 2 ng/ml of mouse IL-12 in RPMI media for 24 hours at 37° C. in humidified incubator with 5% CO2. At the end of the incubation, blood was centrifuged at 260 g for 5 minutes to collect supernatant. IFNγ concentration in the supernatant was determined with mouse IFNγ MSD kit per manufacture's instruction (Meso Scale Discovery). At the time of the blood collection, plasma was collected for drug level analysis by LC-MS/MS.

The mark [1] stands for this setting: IL-12 induced pSTAT4, human PBMC.
Where [2] appears, read: GM-CSF induced pSTAT5, human PBMC.

Sequence of JAK2 (O60674 whole entry): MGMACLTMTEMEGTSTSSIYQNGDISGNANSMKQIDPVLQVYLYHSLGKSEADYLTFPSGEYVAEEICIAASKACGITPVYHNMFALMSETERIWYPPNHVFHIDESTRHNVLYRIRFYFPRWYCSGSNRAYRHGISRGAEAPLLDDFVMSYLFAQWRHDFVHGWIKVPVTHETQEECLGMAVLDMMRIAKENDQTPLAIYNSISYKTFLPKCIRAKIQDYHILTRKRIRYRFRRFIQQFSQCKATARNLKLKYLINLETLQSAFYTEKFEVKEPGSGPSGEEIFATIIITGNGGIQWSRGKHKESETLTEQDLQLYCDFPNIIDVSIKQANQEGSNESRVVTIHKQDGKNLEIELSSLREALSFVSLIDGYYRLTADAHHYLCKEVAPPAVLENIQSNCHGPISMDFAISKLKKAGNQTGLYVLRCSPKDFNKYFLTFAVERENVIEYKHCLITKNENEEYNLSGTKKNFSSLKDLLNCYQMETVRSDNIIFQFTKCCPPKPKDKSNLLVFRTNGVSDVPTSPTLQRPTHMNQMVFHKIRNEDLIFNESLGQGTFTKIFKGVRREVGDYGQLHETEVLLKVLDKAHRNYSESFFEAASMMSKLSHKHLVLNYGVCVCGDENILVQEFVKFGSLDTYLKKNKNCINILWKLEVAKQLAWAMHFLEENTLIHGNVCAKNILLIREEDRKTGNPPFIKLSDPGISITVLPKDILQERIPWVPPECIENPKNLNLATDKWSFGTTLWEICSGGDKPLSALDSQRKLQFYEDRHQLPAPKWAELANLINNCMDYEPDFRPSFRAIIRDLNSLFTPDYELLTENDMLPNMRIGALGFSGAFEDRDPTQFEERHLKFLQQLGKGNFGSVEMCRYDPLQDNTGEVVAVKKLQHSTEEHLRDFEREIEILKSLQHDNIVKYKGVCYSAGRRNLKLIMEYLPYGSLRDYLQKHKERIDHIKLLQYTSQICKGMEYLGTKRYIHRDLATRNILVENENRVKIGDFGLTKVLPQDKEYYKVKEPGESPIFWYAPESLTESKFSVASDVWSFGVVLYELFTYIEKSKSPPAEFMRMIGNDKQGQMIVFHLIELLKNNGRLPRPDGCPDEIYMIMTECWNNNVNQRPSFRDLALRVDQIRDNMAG

As for `CCNC(=O)Cc1ccc(Nc2nc(-c3c(F)cccc3F)nc3c2C(=O)NC3)cc1` [Compound I-80, 2-(4-((2-(2,6-difluorophenyl)-5-oxo-6,7-dihydro-5H-pyrrolo[3,4-d]pyrimidin-4-yl)amino)phenyl)-N-ethylacetamide], the EC50 in the assay with Tyk2-pSTAT4 (Homo sapiens, PBMC) was < 2000 nM; in the assay on JAK2-pSTAT5 (Homo sapiens, PBMC) it was > 20000 nM. Moreover, the Ki on TYK2 was < 10 nM; on JAK2 it was 100 to 1000 nM. Besides, in the assay with IL-12/IL-18 induced IFNγ, the “IL-12/IL-18 induced IFNγ production in vivo” value is recorded as “inhibited”.

For `CCNC(=O)c1ccc(Nc2cc(-c3c(F)cccc3F)nc3c2C(=O)NC3)nc1` [Compound I-136, 6-((2-(2,6-difluorophenyl)-5-oxo-6,7-dihydro-5H-pyrrolo[3,4-b]pyridin-4-yl)amino)-N-ethylnicotinamide], the EC50 is < 2000 nM in the assay with Tyk2-pSTAT4 (Homo sapiens, PBMC) and < 2000 nM in the assay on JAK2-pSTAT5 (Homo sapiens, PBMC). Moreover, the “IL-12 induced IFNγ production” value in the assay on IL-12 induced IFNγ is listed as “significantly inhibit”. Further, the values for the Ki at TYK2 and on JAK2 were < 10 nM and 10 to 100 nM, respectively.

Consider `CC(C)(C)NC(=O)c1ccc(Nc2cc(-c3c(F)cccc3F)nc3c2C(=O)NC3)nc1` [Compound I-165, N-(tert-butyl)-6-((2-(2,6-difluorophenyl)-5-oxo-6,7-dihydro-5H-pyrrolo[3,4-b]pyridin-4-yl)amino)nicotinamide], for which the EC50 in the assay with Tyk2-pSTAT4 (setting [1]) is < 2000 nM; with JAK2-pSTAT5 (setting [2]), 2000 to 20000 nM. Further, the “IL-12 induced IFNγ production” value in the assay with IL-12 induced IFNγ is “significantly inhibit”. Moreover, the Ki is < 10 nM at TYK2 and 10 to 100 nM on JAK2.

For the molecule `CC(C)NC(=O)c1ccc(Nc2cc(-c3c(F)cccc3F)nc3c2C(=O)NC3)cc1` [Compound I-232, 4-((2-(2,6-difluorophenyl)-5-oxo-6,7-dihydro-5H-pyrrolo[3,4-b]pyridin-4-yl)amino)-N-isopropylbenzamide], the EC50 with Tyk2-pSTAT4 (Homo sapiens, PBMC) was < 2000 nM; in the assay on JAK2-pSTAT5 (Homo sapiens, PBMC), 2000 to 20000 nM. For the same molecule, the Ki at TYK2 is < 10 nM; at JAK2 it was 10 to 100 nM.

In the case of `CC(=O)Nc1ccc(Nc2cc(-c3c(F)cccc3F)nc3c2C(=O)NC3)nc1` [Compound I-237, N-(6-((2-(2,6-difluorophenyl)-5-oxo-6,7-dihydro-5H-pyrrolo[3,4-b]pyridin-4-yl)amino)pyridin-3-yl)acetamide], the EC50 in the assay on Tyk2-pSTAT4 (setting [1]) was < 2000 nM; in the assay with JAK2-pSTAT5 (setting [2]), > 20000 nM. Also, the Ki is < 10 nM at TYK2 and 10 to 100 nM at JAK2.

For the molecule `C[C@@H]1COC[C@@H](C)N1c1ccc(Nc2cc(-c3c(F)cccc3F)nc3c2C(=O)NC3)nc1` [Compound I-263, 2-(2,6-difluorophenyl)-4-((5-((3R,5R)-3,5-dimethylmorpholino)pyridin-2-yl)amino)-6,7-dihydro-5H-pyrrolo[3,4-b]pyridin-5-one], the EC50 with Tyk2-pSTAT4 (setting [1]) and in the assay with JAK2-pSTAT5 (setting [2]) was < 2000 nM in each case. The Ki at TYK2 and at JAK2 was < 10 nM each time.

As for `O=C1NCc2nc(-c3c(F)cccc3F)cc(Nc3ccc(NC4CCC4)cn3)c21` [Compound I-276, 4-((5-(cyclobutylamino)pyridin-2-yl)amino)-2-(2,6-difluoro-phenyl)-6,7-dihydro-5H-pyrrolo[3,4-b]pyridin-5-one], the EC50 in the assay with Tyk2-pSTAT4 (setting [1]) and in the assay on JAK2-pSTAT5 (setting [2]) was < 2000 nM throughout. The figures for the Ki at TYK2 and on JAK2 were < 10 nM and 10 to 100 nM, respectively.
